{"source": "patent US4857310A", "about": "“Triglyceride quaternary ammonium compounds, their preparation and use” (The Gillette Company, priority 1987, dated 1989)", "experiment": "absorption of moisturizing composition by the skin", "assay_type": "in vivo", "details": "replacing 20% by weight of the avocado oil or apricot kernel oil in moisturizing compositions", "text": "The triglyceride quaternary ammonium compounds of formula I in which R is C16 -C20 alkyl are valuable additives to a range of cosmetic and toiletry compositions. They are particularly useful in moisturizing compositions containing natural triglycerides which are not easily absorbed by the skin. Examples of such natural triglycerides are avocado oil and apricot kernel oil which are the major natural triglyceride oil components of certain commercially available moisturizing lotions and creams."}
{"smiles": "CCCCCCCCCCCCCCCCCC[N+](C)(C)CC(=O)OC(CC=CCCCCCCCC(=O)OCC(COC(=O)CCCCCCCC=CCC(CCCCCC)OC(=O)C[N+](C)(C)CCCCCCCCCCCCCCCCCC)OC(=O)CCCCCCCC=CCC(CCCCCC)OC(=O)C[N+](C)(C)CCCCCCCCCCCCCCCCCC)CCCCCC", "note": "(stereo not shown) [Example 1, propane-1,2,3-tri[octadec-9-en-12-(oxycarbonyl-N-methylene-N,N-dimethyl-N-octadecylammonium chloride)oate]]", "values": [{"measurement": "improvement in the absorption of the composition by the skin", "result": "significant improvement"}]}
